In PubChem BioAssay AID2060513 (Molecular Pharmacology Branch, DTP, NCI, 2025):

Tested on: 299254-011-R-J1-PDC complex spheroids viability
Test: Anticancer human tumor 299254-011-R-J1-PDC patient-derived melanoma cell line growth inhibition [GQUAD]
Conditions: for IC50: curve of first compound; for viability, T/C: stronger effect = lower value
Method in brief: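 Multi-cell-type spheroids of tumor cells with HUVEC and mesenchymal stem cells, treated with drug combinations. Concentrations descend in half-log steps from near clinical Cmax, or from 10 microM where Cmax is unknown; viability read-out.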

[1] = second compound 0.0316 µM, first compound 0.0316 µM
[2] = second compound 0.0316 µM, first compound 0.1 µM
[3] = second compound 0.0316 µM, first compound 0.316 µM
[4] = second compound 0.0316 µM, first compound 1 µM
[5] = second compound 0.0316 µM, first compound 3.16 µM
[6] = second compound 0.0316 µM, first compound 10 µM
[7] = second compound 0.1 µM, first compound 0.0316 µM
[8] = second compound 0.1 µM, first compound 0.1 µM
[9] = second compound 0.1 µM, first compound 0.316 µM
[10] = second compound 0.1 µM, first compound 1 µM
[11] = second compound 0.1 µM, first compound 3.16 µM
[12] = second compound 0.1 µM, first compound 10 µM
[13] = second compound 0.316 µM, first compound 0.0316 µM
[14] = second compound 0.316 µM, first compound 0.1 µM
[15] = second compound 0.316 µM, first compound 0.316 µM
[16] = second compound 0.316 µM, first compound 1 µM
[17] = second compound 0.316 µM, first compound 3.16 µM
[18] = second compound 0.316 µM, first compound 10 µM
[19] = second compound 1 µM, first compound 0.0316 µM
[20] = second compound 1 µM, first compound 0.1 µM
[21] = second compound 1 µM, first compound 0.316 µM
[22] = second compound 1 µM, first compound 1 µM
[23] = second compound 1 µM, first compound 3.16 µM
[24] = second compound 1 µM, first compound 10 µM
[25] = second compound 3.16 µM, first compound 0.0316 µM
[26] = second compound 3.16 µM, first compound 0.1 µM
[27] = second compound 3.16 µM, first compound 0.316 µM
[28] = second compound 3.16 µM, first compound 1 µM
[29] = second compound 3.16 µM, first compound 3.16 µM
[30] = second compound 3.16 µM, first compound 10 µM
[31] = second compound 10 µM, first compound 0.0316 µM
[32] = second compound 10 µM, first compound 0.1 µM
[33] = second compound 10 µM, first compound 0.316 µM
[34] = second compound 10 µM, first compound 1 µM
[35] = second compound 10 µM, first compound 3.16 µM
[36] = second compound 10 µM, first compound 10 µM
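Also: spheroids exposed to the agents for seven days before readout.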
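For viability, T/C in this document: percent viability relative to DMSO vehicle control wells = 100%.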

Structure (SMILES): C=CCn1c(=O)c2cnc(Nc3ccc(N4CCN(C)CC4)cc3)nc2n1-c1cccc(C(C)(C)O)n1 + CN(C)c1ccc(Nc2c3ccc(NC(=O)CCN4CCCC4)cc3nc3cc(NC(=O)CCN4CCCC4)ccc23)cc1
- IC50 (second compound 0.0316 µM): 999 nM
- IC50 (second compound 0.1 µM): 1790 nM
- IC50 (second compound 0.316 µM): 1750 nM
- IC50 (second compound 1 µM): 2280 nM
- IC50 (second compound 3.16 µM): 1970 nM
- IC50 (second compound 10 µM): 1680 nM
- viability, T/C [1]: 101%
- viability, T/C [2]: 106%
- viability, T/C [3]: 77.8%
- viability, T/C [4]: 49.7%
- viability, T/C [5]: 46.8%
- viability, T/C [6]: 31.5%
- viability, T/C [7]: 88.2%
- viability, T/C [8]: 94.7%
- viability, T/C [9]: 76.6%
- viability, T/C [10]: 69.6%
- viability, T/C [11]: 30.8%
- viability, T/C [12]: 27.3%
- viability, T/C [13]: 92.7%
- viability, T/C [14]: 81.2%
- viability, T/C [15]: 95.9%
- viability, T/C [16]: 65.9%
- viability, T/C [17]: 34.9%
- viability, T/C [18]: 31.5%
- viability, T/C [19]: 120%
- viability, T/C [20]: 99.5%
- viability, T/C [21]: 91.9%
- viability, T/C [22]: 71.1%
- viability, T/C [23]: 37.4%
- viability, T/C [24]: 29.6%
- viability, T/C [25]: 92.4%
- viability, T/C [26]: 94.5%
- viability, T/C [27]: 119%
- viability, T/C [28]: 75.2%
- viability, T/C [29]: 36.2%
- viability, T/C [30]: 28.9%
- viability, T/C [31]: 97.5%
- viability, T/C [32]: 115%
- viability, T/C [33]: 92.7%
- viability, T/C [34]: 67.8%
- viability, T/C [35]: 27.2%
- viability, T/C [36]: 28.3%

Structure (SMILES): CC1COCCN1c1cc(C2(O)CC3CCC(C2)O3)c2cnn(-c3ccn[nH]3)c2n1 (centres undefined) + Cc1[nH]c2ccc(F)cc2c1-c1nc2c3cccnc3c3ncccc3c2[nH]1
- IC50 (second compound 0.0316 µM): 127 nM
- IC50 (second compound 0.1 µM): 135 nM
- IC50 (second compound 0.316 µM): 178 nM
- IC50 (second compound 1 µM): 125 nM
- IC50 (second compound 3.16 µM): 109 nM
- IC50 (second compound 10 µM): 83.8 nM
- viability, T/C [1]: 83.2%
- viability, T/C [2]: 54.7%
- viability, T/C [3]: 31.3%
- viability, T/C [4]: 14.4%
- viability, T/C [5]: 12.2%
- viability, T/C [6]: 8.75%
- viability, T/C [7]: 72.7%
- viability, T/C [8]: 60.4%
- viability, T/C [9]: 20.7%
- viability, T/C [10]: 14.7%
- viability, T/C [11]: 14.4%
- viability, T/C [12]: 7.02%
- viability, T/C [13]: 77.3%
- viability, T/C [14]: 76.6%
- viability, T/C [15]: 23.8%
- viability, T/C [16]: 19.6%
- viability, T/C [17]: 12.6%
- viability, T/C [18]: 7.48%
- viability, T/C [19]: 73.7%
- viability, T/C [20]: 55.8%
- viability, T/C [21]: 30.4%
- viability, T/C [22]: 22.1%
- viability, T/C [23]: 13.7%
- viability, T/C [24]: 7.91%
- viability, T/C [25]: 84.5%
- viability, T/C [26]: 52.7%
- viability, T/C [27]: 22.5%
- viability, T/C [28]: 16%
- viability, T/C [29]: 14%
- viability, T/C [30]: 6.07%
- viability, T/C [31]: 73%
- viability, T/C [32]: 46.9%
- viability, T/C [33]: 21.8%
- viability, T/C [34]: 15.1%
- viability, T/C [35]: 9.33%
- viability, T/C [36]: 4.43%
